Like-named read-outs stand apart in the source and are kept apart here.
Assays:
[1] = test system: Caenorhabditis elegans (Bristol N2); experiment: C. elegans larval development and growth assay
[2] = test system: Nrf2/ARE (ARE-bla HepG2 cells); experiment: ARE β-lactamase reporter gene assay; format: cell-based, human; details: Homo sapiens, HepG2; 16 h incubation; mean±SD of three experiments; read-out: ARE (HepG2) EC50
[3] = test system: Caenorhabditis elegans strain PE255; experiment: In vivo C. elegans ATP status assay
HepG2 cells [4] = experiment: ROS-Glo hydrogen peroxide (ROS) assay; format: cell-based, human; details: Homo sapiens, HepG2; 2 h treatment; mean±SD of three experiments; read-out: ROS (HepG2) EC50
HepG2 cells [5] = experiment: Intracellular ATP content (cell viability) assay; format: cell-based, human; details: Homo sapiens, HepG2, 40 h treatment, mean±SD of three experiments
[6] = test system: isolated rat liver mitochondria; experiment: Oxygen consumption, Clark-type oxygen electrode; format: biochemical; details: for I-ADP, % of control (O2 consumption rate): glutamate/malate driven state 3 respiration; for I-ADP, % of control (O2 consumption rate) / I-sub, % of control (O2 consumption rate) / II-ADP, % of control (O2 consumption rate) / II-sub, % of control (O2 consumption rate): isolated rat liver mitochondria; for I-sub, % of control (O2 consumption rate): glutamate/malate driven state 4 respiration; for II-ADP, % of control (O2 consumption rate): succinate-driven state 3 respiration; for II-sub, % of control (O2 consumption rate): succinate-driven state 4 respiration
HepG2 cells [7] = experiment: cells; details: Homo sapiens
[8] = test system: p53 (p53-bla HCT-116 cells); experiment: p53 β-lactamase reporter gene assay; format: cell-based, human; details: Homo sapiens; 16 h incubation; mean±SD of three experiments
hNSC = experiment: MMP assay in human neural stem cells (hNSC); format: cell-based; details: Homo sapiens, Neural stem cell; 1 h treatment; fresh re-sourced stocks; mean±SD of three experiments; read-out: hNSC IC50 (MMP)
rat primary hepatocytes = experiment: MMP assay in rat primary hepatocytes; details: for IC50: Rattus norvegicus, Hepatocyte
[9] = test system: HeLa cells expressing YFP-Parkin; experiment: Parkin translocation assay; format: cell-based, human; details: HeLa cells stably expressing YFP-Parkin; treated for 2 h
HepG2 cells [10] = details: cited from earlier work

For `Cc1cc(O)c2c(c1)C(=O)c1cc(O)cc(O)c1C2=O` [Emodin], the “EXT: mean difference in nematode size relative to plate controls” value ([1]; 0.5 µM) was 0.07129, the “EXT: mean difference in nematode size relative to plate controls” value ([1]; 1 µM) was 0.003832 and the “EXT: mean difference in nematode size relative to plate controls” value ([1]; 5 µM) was -0.0304. The “EXT: mean difference in nematode size relative to plate controls” value ([1]; 10 µM) was 0.01596, the “EXT: mean difference in nematode size relative to plate controls” value ([1]; 25 µM) was 0.07038 and the “EXT: mean difference in nematode size relative to plate controls” value ([1]; 50 µM) was 0.04376. The “EXT: mean difference in nematode size relative to plate controls” value ([1]; 100 µM) was -0.01346, the “effect on larval growth (in words)” value ([1]; 0.5–100μM, 48 h exposure) was “did not affect growth” and the EC50 [2] was 10.5 ± 1.45 µM. The “LUM: mean difference in luminescence (ATP content) relative to plate controls” value ([3]; 0.5 µM) was 0.08724, the “LUM: mean difference in luminescence (ATP content) relative to plate controls” value ([3]; 1 µM) was 0.09663 and the “LUM: mean difference in luminescence (ATP content) relative to plate controls” value ([3]; 5 µM) was 0.2419. The “LUM: mean difference in luminescence (ATP content) relative to plate controls” value ([3]; 10 µM) was 0.4641, the “LUM: mean difference in luminescence (ATP content) relative to plate controls” value ([3]; 25 µM) was 0.5201 and the “LUM: mean difference in luminescence (ATP content) relative to plate controls” value ([3]; 50 µM) was 0.576. For the same compound, the “LUM: mean difference in luminescence (ATP content) relative to plate controls” value ([3]; 75 µM) was 0.5532, the “LUM: mean difference in luminescence (ATP content) relative to plate controls” value ([3]; 100 µM) was 0.7699 and the “effect on ATP content (in words)” value ([3]; 0.5–100μM, 24 h exposure) was “statistically significant decreases in ATP content”. It also gave a minimal effective concentration ([3]; Caenorhabditis elegans, read-out: LEC LUM: lowest effect concentration for luminescence, a measure of nematode ATP content) of 25 µM, an EC50 (HepG2 cells [4]) of 5.24 ± 1.72 µM and an IC50 (HepG2 cells [5]; 5 mM glucose, read-out: ATP (HepG2, glucose) IC50) of 43 ± 4.95 µM. The IC50 (HepG2 cells [5]; 10 mM galactose, read-out: ATP (HepG2, galactose) IC50) was 39.7 ± 2.69 µM, the “I-ADP, % of control (O2 consumption rate)” value ([6]; 0.16 µM) was 93 (34.5) % of control and the “I-sub, % of control (O2 consumption rate)” value ([6]; 0.16 µM) was 102 (11.0) % of control. The “II-ADP, % of control (O2 consumption rate)” value (“II-ADP, % of control” for short) ([6]; 0.16 µM) was 94 (59.1) % of control, the “II-sub, % of control (O2 consumption rate)” value (shortened to “II-sub, % of control”) ([6]; 0.16 µM) was 110 (20.4) % of control and the “I-ADP, % of control (O2 consumption rate)” value ([6]; 0.8 µM) was 98 (36.6) % of control. The “I-sub, % of control (O2 consumption rate)” value ([6]; 0.8 µM) was 120 (13.0) % of control, the “II-ADP, % of control” value ([6]; 0.8 µM) was 94 (59.4) % of control and the “II-sub, % of control” value ([6]; 0.8 µM) was 114 (21.1) % of control. The “I-ADP, % of control (O2 consumption rate)” value ([6]; 4 µM) was 110 (41.0) % of control, the “I-sub, % of control (O2 consumption rate)” value ([6]; 4 µM) was 232 (25.1) % of control and the “II-ADP, % of control” value ([6]; 4 µM) was 84 (53.2) % of control. For the same compound, the “II-sub, % of control” value ([6]; 4 µM) was 144 (26.8) % of control, the “I-ADP, % of control (O2 consumption rate)” value ([6]; 20 µM) was 144 (53.6) % of control and the “I-sub, % of control (O2 consumption rate)” value ([6]; 20 µM) was 540 (58.3) % of control. The “II-ADP, % of control” value ([6]; 20 µM) was 81 (51.3) % of control, the “II-sub, % of control” value ([6]; 20 µM) was 198 (36.7) % of control and the “I-ADP, % of control (O2 consumption rate)” value ([6]; 100 µM) was 59 (30.1) % of control. For the same compound, the “I-sub, % of control (O2 consumption rate)” value ([6]; 100 µM) was 165 (35.4) % of control, the “II-ADP, % of control” value ([6]; 100 µM) was 33 (19.6) % of control and the “II-sub, % of control” value ([6]; 100 µM) was 67 (23.4) % of control. For the same compound, the “Potential Mechanism” value ([6]; mitochondrial respiration in isolated rat liver mitochondria, Clark type oxygen electrode, over tested concentrations) was “Uncoupler at low concentrations (4-20 µM), and Uncoupler + inhibitor at high concentrations (100 µM)”, the IC50 (HepG2 cells [7]; HepG2, 1 h, read-out: HepG2 IC50 Galactose (MMP)) was 8 ± 1.44 µM and the IC50 (HepG2 cells [7]; HepG2, 1 h, read-out: HepG2 IC50 Glucose (MMP)) was 6.14 ± 1.29 µM. The IC50 (HepG2 cells [7]; HepG2, read-out: MMP assays IC50 (µM) HepG2) was 2.51 µM, the Emax (HepG2 cells [7]; HepG2, read-out: MMP assays efficacy (%) HepG2) was 104% and the EC50 [8] was 14.9 ± 6.5 µM. For the same compound, the IC50 (hNSC) was 1.09 ± 0.56 µM, the “Rat hepatocytes (efficacy) (MMP)” value (rat primary hepatocytes; % of positive control, mean±SD of three experiments) was −106±9.55% and the IC50 (rat primary hepatocytes; 1 h, read-out: Rat hepatocytes IC50 (MMP)) was 15.8 ± 1.07 µM. The IC50 (rat primary hepatocytes; read-out: MMP assays IC50 (µM) Rat Hepatocytes) was 6.28 ± 4.57 µM, the “MMP assays efficacy (%) Rat Hepatocytes” value (rat primary hepatocytes; rat hepatocytes, mean ± SD of three experiments) was -101±17% and the Parkin recruitment [9] was “Active”. For the same compound, the “MMP assays efficacy (%) qHTS-HepG2” value (HepG2 cells [10]) was -97±5% and the IC50 (HepG2 cells [10]; read-out: MMP assays IC50 (µM) qHTS-HepG2) was 1.33 ± 0.78 µM.

Source: article PMC6112376, “Comprehensive Analyses and Prioritization of Tox21 10K Chemicals Affecting Mitochondrial Function by in-Depth Mechanistic Studies” (Environmental Health Perspectives, 2018)
